Like-named read-outs stand apart in the source and are kept apart here.
Legend:
Assay type in all cases: cell-based, Escherichia coli
[1] = tested on: EKO-35-Pore acrBD408A (functionally inactive AcrB variant); assay: Checkerboard synergy (FICI), porinated strain
Procedure, shortened: (§1)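 Read-out was OD600, the MIC being the lowest concentration without growth in a CLSI checkerboard run in MHB II. Each drug's MIC in combination was divided by its MIC alone and the two ratios summed as FICI. Cut-offs: <0.5 synergy, >0.5–1.0 additive, >1.0–2.0 indifferent, >2.0 antagonism.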

[2] = tested on: EKO-35 porinated strain expressing acrD; assay: Checkerboard synergy (FICI), porinated strain
Procedure, shortened: as §1

[3] = tested on: EKO-35 porinated strain expressing acrF (AcrEF); assay: Checkerboard synergy (FICI), porinated strain
Procedure, shortened: as §1

wild-type K-12-Pore = assay: Checkerboard synergy (FICI), porinated strain
Procedure, shortened: as §1

[4] = tested on: EKO-35 porinated strain expressing acrB; assay: Checkerboard synergy (FICI), porinated strain
Procedure, shortened: as §1

EKO-35-Pore = assay: Checkerboard synergy (FICI), porinated strain
Procedure, shortened: as §1

wild-type E. coli K-12 = tested on: wild-type E. coli K-12
Procedure, shortened: as §1

[5] = tested on: EKO-35 strains producing different efflux pumps (EKO-35 araC::X); assay: Checkerboard synergy (FICI) of PAβN or NMP with antibiotics
Procedure, shortened: as §1

[6] = strain EKO-35 acrBD408A Pore, NMP + antibiotic
[7] = EKO-35 acrD Pore, NMP + antibiotic
[8] = EKO-35 acrD Pore, PAβN + antibiotic
[9] = strain EKO-35 acrD Pore, NMP + antibiotic
[10] = EKO-35 acrEF Pore, PAβN + antibiotic
[11] = strain EKO-35 acrEF Pore, NMP + antibiotic
[12] = strain K-12 Pore, NMP + antibiotic
[13] = EKO-35 acrB Pore, NMP + antibiotic
[14] = strain EKO-35 acrB Pore, NMP + antibiotic
[15] = strain EKO-35 Pore, NMP + antibiotic
[16] = EKO-35 acrEF, PAβN + antibiotic
[17] = strain EKO-35 acrD, NMP + antibiotic

## Cc1onc(-c2ccccc2)c1C(=O)N[C@@H]1C(=O)N2[C@@H]1SC(C)(C)[C@@H]2C(=O)O [oxacillin]
[1]; EKO-35 acrBD408A Pore, NMP + antibiotic
  FICI: 2.000
[1]; EKO-35 acrBD408A Pore, PAβN + antibiotic
  FICI: 1.020
[1]; EKO-35 acrBD408A Pore, antibiotic alone (PAβN checkerboard)
  MICb Alone: 0.25 µg/mL
[1]; EKO-35 acrBD408A Pore, antibiotic in combination with PAβN
  MICb Combined: 0.13 µg/mL
[1]; [6]
  Effect: — (indifferent (FICI >1.0))
  FICI: 2.000
[1]; strain EKO-35 acrBD408A Pore, antibiotic alone
  MICb Alone: 0.13 µg/mL
[1]; strain EKO-35 acrBD408A Pore, antibiotic in combination with NMP
  MICb Combined: 0.13 µg/mL
[2]; [7]
  Effect: Additive
  FICI: 0.750
[2]; [8]
  Effect: Synergistic
  FICI: 0.500
[2]; EKO-35 acrD Pore, antibiotic alone (PAβN checkerboard)
  MICb Alone: 4 µg/mL
[2]; EKO-35 acrD Pore, antibiotic in combination with PAβN
  MICb Combined: 1 µg/mL
[2]; acrD expressed in the porinated strain
  interaction of PAβN in combination with the labelled antibiotic (FICI): still observed
[2]; [9]
  Effect: Additive (additive (FICI >0.5-1.0))
  FICI: 0.750
[2]; strain EKO-35 acrD Pore, antibiotic alone
  MICb Alone: 2 µg/mL
[2]; strain EKO-35 acrD Pore, antibiotic in combination with NMP
  MICb Combined: 0.5 µg/mL
[3]; EKO-35 acrEF Pore, NMP + antibiotic
  FICI: 1.000
[3]; [10]
  Effect: Synergistic
  FICI: 0.500
[3]; EKO-35 acrEF Pore, antibiotic alone (PAβN checkerboard)
  MICb Alone: 4 µg/mL
[3]; EKO-35 acrEF Pore, antibiotic in combination with PAβN
  MICb Combined: 1 µg/mL
[3]; [11]
  Effect: — (indifferent (FICI >1.0))
  FICI: 1.000
[3]; strain EKO-35 acrEF Pore, antibiotic alone
  MICb Alone: 2 µg/mL
[3]; strain EKO-35 acrEF Pore, antibiotic in combination with NMP
  MICb Combined: 1 µg/mL
wild-type K-12-Pore; K-12 Pore, NMP + antibiotic
  Effect: Synergistic
  FICI: 0.266
wild-type K-12-Pore; K-12 Pore, PAβN + antibiotic
  Effect: Additive
  FICI: 0.750
wild-type K-12-Pore; K-12 Pore, antibiotic alone (PAβN checkerboard)
  MICb Alone: 32 µg/mL
wild-type K-12-Pore; K-12 Pore, antibiotic in combination with PAβN
  MICb Combined: 16 µg/mL
wild-type K-12-Pore; [12]
  Effect: Synergistic (Synergy (FICI ≤0.5))
  FICI: 0.266
wild-type K-12-Pore; strain K-12 Pore, antibiotic alone
  MICb Alone: 64 µg/mL
wild-type K-12-Pore; strain K-12 Pore, antibiotic in combination with NMP
  MICb Combined: 16 µg/mL
[4]; [13]
  Effect: Synergistic
  FICI: 0.500
[4]; EKO-35 acrB Pore, PAβN + antibiotic
  Effect: Synergistic
[4]; EKO-35 acrB Pore, antibiotic in combination with PAβN
  MICb Combined: 16 µg/mL
[4]; porinated strain producing AcrB
  potentiation of the labelled compound by NMP: enhancing the activity
[4]; [14]
  Effect: Synergistic (Synergy (FICI ≤0.5))
  FICI: 0.500
[4]; strain EKO-35 acrB Pore, antibiotic alone
  MICb Alone: 64 µg/mL
[4]; strain EKO-35 acrB Pore, antibiotic in combination with NMP
  MICb Combined: 16 µg/mL
EKO-35-Pore; EKO-35 Pore, NMP + antibiotic
  Effect: Additive
  FICI: 0.750
EKO-35-Pore; EKO-35 Pore, PAβN + antibiotic
  FICI: 1.020
EKO-35-Pore; EKO-35 Pore, antibiotic alone (PAβN checkerboard)
  MICb Alone: 0.25 µg/mL
EKO-35-Pore; EKO-35 Pore, antibiotic in combination with PAβN
  MICb Combined: 0.13 µg/mL
EKO-35-Pore; porinated efflux-deficient strains
  interaction of PAβN in combination with the labelled antibiotic (FICI): no longer synergistic
EKO-35-Pore; [15]
  Effect: Additive (additive (FICI >0.5-1.0))
  FICI: 0.750
EKO-35-Pore; strain EKO-35 Pore, antibiotic alone
  MICb Alone: 0.5 µg/mL
EKO-35-Pore; strain EKO-35 Pore, antibiotic in combination with NMP
  MICb Combined: 0.25 µg/mL
wild-type E. coli K-12; K-12, NMP + antibiotic
  Effect: Synergistic
  FICI: 0.375
wild-type E. coli K-12; K-12, PAβN + antibiotic
  Effect: Synergistic
  FICI: 0.188
wild-type E. coli K-12; K-12, antibiotic alone (PAβN checkerboard)
  MICb Alone: 512 µg/mL
wild-type E. coli K-12; K-12, antibiotic in combination with PAβN
  MICb Combined: 32 µg/mL
wild-type E. coli K-12; strain K-12, NMP + antibiotic
  Effect: Synergistic (Synergy (FICI ≤0.5))
  FICI: 0.375
wild-type E. coli K-12; strain K-12, antibiotic alone
  MICb Alone: 512 µg/mL
[5]; EKO-35 acrB, NMP + antibiotic
  Effect: Additive
[5]; EKO-35 acrB, PAβN + antibiotic
  Effect: Synergistic
  FICI: 0.125
[5]; EKO-35 acrB, antibiotic alone (PAβN checkerboard)
  MICb Alone: 1024 µg/mL
[5]; EKO-35 acrB, antibiotic in combination with PAβN
  MICb Combined: 64 µg/mL
[5]; EKO-35 acrD, NMP + antibiotic
  Effect: Additive
  FICI: 0.750
[5]; EKO-35 acrD, PAβN + antibiotic
  Effect: Synergistic
  FICI: 0.156
[5]; EKO-35 acrD, antibiotic in combination with PAβN
  MICb Combined: 16 µg/mL
[5]; EKO-35 acrEF, NMP + antibiotic
  Effect: Synergistic
[5]; [16]
  Effect: Synergistic
  FICI: 0.133
[5]; EKO-35 acrEF, antibiotic alone (PAβN checkerboard)
  MICb Alone: 256 µg/mL
[5]; EKO-35 acrEF, antibiotic in combination with PAβN
  MICb Combined: 2 µg/mL
[5]; strain EKO-35 acrB, NMP + antibiotic
  Effect: Additive (additive (FICI >0.5-1.0))
[5]; strain EKO-35 acrB, antibiotic in combination with NMP
  MICb Combined: 16 µg/mL
[5]; [17]
  Effect: Additive (additive (FICI >0.5-1.0))
  FICI: 0.750
[5]; strain EKO-35 acrD, antibiotic in combination with NMP
  MICb Combined: 32 µg/mL
[5]; strain EKO-35 acrEF, NMP + antibiotic
  Effect: Synergistic (Synergy (FICI ≤0.5))
[5]; strain EKO-35 acrEF, antibiotic alone
  MICb Alone: 256 µg/mL
[5]; strain EKO-35 acrEF, antibiotic in combination with NMP
  MICb Combined: 64 µg/mL
